From ChEMBL document CHEMBL1201862, “PubChem BioAssay data set” (2004)
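Each compound was tested at five concentrations against cells in 96-well plates for 48 hours. GI50 marks 50% less growth.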 The source made the active and inactive calls. Cut-off read from the data, not from the text of the source: active = GI50 up to about 1.1 µM and inactive = higher.

What was measured:
Test in all cases: NCI-60 cell line screen, 48 h
786-0 = tested on: 786-0
A498 = tested on: A498
A549 = tested on: A549
ACHN = tested on: ACHN
BT-549 = tested on: BT-549
CAKI-1 = tested on: CAKI-1
CCRF-CEM = tested on: CCRF-CEM
COLO 205 = tested on: COLO 205
DU-145 = tested on: DU-145
EKVX = tested on: EKVX
HCC 2998 = tested on: HCC 2998
HCT-116 = tested on: HCT-116
HCT-15 = tested on: HCT-15
HL-60 = tested on: HL-60
HOP-62 = tested on: HOP-62
HOP-92 = tested on: HOP-92
HT-29 = tested on: HT-29
Hs-578T = tested on: Hs-578T
IGROV-1 = tested on: IGROV-1
K562 = tested on: K562
KM12 = tested on: KM12
LOX IMVI = tested on: LOX IMVI
M14 = tested on: M14
MDA-MB-231 = tested on: MDA-MB-231
MDA-MB-435 = tested on: MDA-MB-435
MOLT-4 = tested on: MOLT-4
Malme-3M = tested on: Malme-3M
NCI-H226 = tested on: NCI-H226
NCI-H23 = tested on: NCI-H23
NCI-H460 = tested on: NCI-H460
NCI-H522 = tested on: NCI-H522
NCI/ADR-RES = tested on: NCI/ADR-RES
OVCAR-3 = tested on: OVCAR-3
OVCAR-4 = tested on: OVCAR-4
OVCAR-5 = tested on: OVCAR-5
OVCAR-8 = tested on: OVCAR-8
PC-3 = tested on: PC-3
RPMI-8226 = tested on: RPMI-8226
RXF 393 = tested on: RXF 393
SF-268 = tested on: SF-268
SF-295 = tested on: SF-295
SK-MEL-28 = tested on: SK-MEL-28
SK-MEL-2 = tested on: SK-MEL-2
SK-MEL-5 = tested on: SK-MEL-5
SK-OV-3 = tested on: SK-OV-3
SNB-19 = tested on: SNB-19
SNB-75 = tested on: SNB-75
SR = tested on: SR
SW-620 = tested on: SW-620
T47D = tested on: T47D
TK-10 = tested on: TK-10
U-251 = tested on: U-251
UACC-257 = tested on: UACC-257
UACC-62 = tested on: UACC-62
UO-31 = tested on: UO-31
MCF7 = tested on: MCF7
SF-539 = tested on: SF-539
SN12C = tested on: SN12C

Measured: GI50

O=C1CNc2cc(N3CCN(c4ccccc4)CC3)ccc2N1
> 100 µM: HCT-15
inactive: 786-0 > 100 µM | A498 > 100 µM | A549 > 100 µM | ACHN > 100 µM | BT-549 > 100 µM | CAKI-1 > 100 µM | CCRF-CEM > 100 µM | COLO 205 > 100 µM | DU-145 > 100 µM | EKVX 34.1 µM | HCC 2998 > 100 µM | HCT-116 > 100 µM | HL-60 > 100 µM | HOP-62 > 100 µM | HOP-92 > 100 µM | HT-29 > 100 µM | Hs-578T > 100 µM | IGROV-1 > 100 µM | K562 > 100 µM | KM12 > 100 µM | LOX IMVI > 100 µM | M14 > 100 µM | MDA-MB-231 > 100 µM | MDA-MB-435 > 100 µM | MOLT-4 > 100 µM | Malme-3M > 100 µM | NCI-H226 > 100 µM | NCI-H23 > 100 µM | NCI-H460 > 100 µM | NCI-H522 > 100 µM | NCI/ADR-RES > 100 µM | OVCAR-3 > 100 µM | OVCAR-4 > 100 µM | OVCAR-5 > 100 µM | OVCAR-8 > 100 µM | PC-3 > 100 µM | RPMI-8226 > 100 µM | RXF 393 > 100 µM | SF-268 > 100 µM | SF-295 > 100 µM | SK-MEL-28 > 100 µM | SK-MEL-2 > 100 µM | SK-MEL-5 > 100 µM | SK-OV-3 > 100 µM | SNB-19 > 100 µM | SNB-75 > 100 µM | SR > 100 µM | SW-620 > 100 µM | T47D > 100 µM | TK-10 > 100 µM | U-251 > 100 µM | UACC-257 > 100 µM | UACC-62 > 100 µM | UO-31 > 100 µM

O=C(Nc1ccc(Cl)cc1)c1cc(S(=O)(=O)Nc2n[nH]c(=O)n2-c2ccccc2)c(S)cc1Cl
inactive: 786-0 > 100 µM | A498 > 100 µM | A549 > 100 µM | BT-549 > 100 µM | CAKI-1 > 100 µM | CCRF-CEM > 100 µM | COLO 205 > 100 µM | DU-145 > 100 µM | EKVX > 100 µM | HCC 2998 > 100 µM | HCT-116 > 100 µM | HL-60 > 100 µM | HOP-62 > 100 µM | HOP-92 > 100 µM | HT-29 > 100 µM | Hs-578T > 100 µM | IGROV-1 > 100 µM | KM12 > 100 µM | LOX IMVI > 100 µM | M14 > 100 µM | MCF7 > 100 µM | MDA-MB-231 > 100 µM | MDA-MB-435 > 100 µM | MOLT-4 6.22 µM | Malme-3M > 100 µM | NCI-H226 > 100 µM | NCI-H23 > 100 µM | NCI-H460 > 100 µM | NCI/ADR-RES > 100 µM | OVCAR-3 6.28 µM | OVCAR-4 > 100 µM | OVCAR-5 > 100 µM | OVCAR-8 > 100 µM | RPMI-8226 > 100 µM | RXF 393 > 100 µM | SF-268 > 100 µM | SF-295 > 100 µM | SF-539 > 100 µM | SK-MEL-28 > 100 µM | SK-MEL-2 > 100 µM | SK-MEL-5 > 100 µM | SK-OV-3 > 100 µM | SN12C > 100 µM | SNB-19 > 100 µM | SR > 100 µM | SW-620 > 100 µM | T47D > 100 µM | U-251 > 100 µM | UACC-257 > 100 µM | UACC-62 > 100 µM | UO-31 > 100 µM
> 100 µM: HCT-15

CC1=NN(c2nc(N)nc(C(C)Cl)n2)C(C)(C)C1 (stereo not given)
inactive: 786-0 > 100 µM | A498 > 100 µM | ACHN > 100 µM | BT-549 > 100 µM | CAKI-1 > 100 µM | CCRF-CEM > 100 µM | COLO 205 > 100 µM | DU-145 > 100 µM | EKVX > 100 µM | HCC 2998 > 100 µM | HCT-116 > 100 µM | HL-60 > 100 µM | HOP-62 > 100 µM | HOP-92 > 100 µM | HT-29 > 100 µM | Hs-578T > 100 µM | IGROV-1 > 100 µM | K562 85.9 µM | KM12 > 100 µM | LOX IMVI > 100 µM | M14 > 100 µM | MCF7 > 100 µM | MDA-MB-231 > 100 µM | MDA-MB-435 > 100 µM | MOLT-4 > 100 µM | NCI-H226 > 100 µM | NCI-H23 > 100 µM | NCI-H460 > 100 µM | NCI/ADR-RES > 100 µM | OVCAR-4 > 100 µM | OVCAR-8 > 100 µM | PC-3 > 100 µM | RPMI-8226 > 100 µM | RXF 393 > 100 µM | SF-268 > 100 µM | SF-295 > 100 µM | SF-539 > 100 µM | SK-MEL-28 > 100 µM | SK-MEL-2 > 100 µM | SK-MEL-5 > 100 µM | SK-OV-3 > 100 µM | SNB-19 > 100 µM | SNB-75 > 100 µM | SR > 100 µM | SW-620 > 100 µM | T47D > 100 µM | TK-10 > 100 µM | U-251 > 100 µM | UACC-257 > 100 µM | UACC-62 > 100 µM | UO-31 > 100 µM
> 100 µM: HCT-15

O=C(NCCN1CCOCC1)c1ccc2cc(C(=O)N3CC(CCl)c4ccc([N+](=O)[O-])cc43)[nH]c2c1 (stereo not given)
inactive: 786-0 4.41 µM | A498 7.03 µM | A549 5.19 µM | ACHN 12.4 µM | BT-549 16.9 µM | CAKI-1 24.2 µM | CCRF-CEM 7.82 µM | COLO 205 25 µM | DU-145 17.5 µM | EKVX 16.6 µM | HCC 2998 15 µM | HCT-116 13.5 µM | HL-60 6.14 µM | HOP-62 17.1 µM | HOP-92 8.24 µM | HT-29 5.14 µM | Hs-578T 4.83 µM | IGROV-1 11.5 µM | K562 19.4 µM | KM12 23.1 µM | LOX IMVI 2.63 µM | M14 7.38 µM | MCF7 17.5 µM | MDA-MB-231 15.5 µM | MDA-MB-435 15.5 µM | MOLT-4 6.52 µM | NCI-H226 27.3 µM | NCI-H23 43.6 µM | NCI-H460 11.4 µM | NCI-H522 4.67 µM | NCI/ADR-RES > 100 µM | OVCAR-3 16.9 µM | OVCAR-4 8.77 µM | OVCAR-5 > 100 µM | OVCAR-8 12.1 µM | PC-3 15 µM | RPMI-8226 2.43 µM | RXF 393 5.01 µM | SF-268 9.84 µM | SF-295 3.18 µM | SF-539 60.4 µM | SK-MEL-28 6.62 µM | SK-MEL-2 16 µM | SK-MEL-5 2.54 µM | SK-OV-3 16.1 µM | SN12C 19.2 µM | SNB-19 12 µM | SNB-75 6.7 µM | SW-620 20.1 µM | T47D 26.2 µM | TK-10 16.9 µM | U-251 9.66 µM | UACC-257 25 µM | UACC-62 11.9 µM | UO-31 43.4 µM
19.1 µM: HCT-15
